Results from article PMC9019904, “AD Informer Set: Chemical tools to facilitate Alzheimer's disease drug discovery” (Alzheimer's & Dementia : Translational Research & Clinical …, 2022).
In brackets after ≈: the same amount, converted by molar mass.

How the values were obtained:
cellular system = details: published cellular activity at 10 μM; cited from earlier work
[1] = test system: BV2 (mouse microglia) cell line; test: pHrodo-myelin phagocytosis/cell viability high content imaging assay: phagocytosis signal; format: cell-based; details: BV2 cells, 10 μM
Outline: (§1)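 HCI read-out ~22 h post pHrodo-myelin; phagocytosis + viability simultaneously; 3 parameters extracted; intensity up = early apoptosis, down = later apoptosis.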

[2] = test system: HMC3 (human microglia) cell line; test: as above; format: cell-based; details: HMC3 cells, 10 μM
Outline: as §1

[3] = Kinetic solubility in aqueous buffer pH 7.4 by total chemiluminescent nitrogen determination (Analiza); details: for solubility kinetic: aqueous buffer, pH 7.4, aqueous buffer, kinetic from dmso stock
[4] = test system: BV2 (mouse microglia) cell line; test: pHrodo-myelin phagocytosis/cell viability high content imaging assay: viability (cell count, nuclear area, nuclear intensity); details: BV2 cells, 10 μM, cell count <70% control
Outline: (§2)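 Viability was read by high-content imaging as cell count per well and nuclear intensity per cell, in murine BV2 and human HMC3 microglial lines. Cells received a single 10 μM compound dose for 48 h, including 20 h with pHrodo-myelin. Duplicate means are expressed as % of untreated control.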

[5] = test system: HMC3 (human microglia) cell line; test: as above; details: HMC3 cells, 10 μM, cell count <70% control
Outline: as §2

solubility kinetic [3] [µM] | Structure (SMILES) | Reported as cell active (<10 μM) (cellular system) | Inhibition of mouse microglial phagocytosis at 10 μM (<70% control) [1] | Inhibition of human microglial phagocytosis at 10 μM (<70% control) [2] | Kinetic solubility ([3]; aqueous buffer pH 7.4) [µM] | Mouse microglial cytotoxicity at 10 μM (<70% control) [4] | Human microglial cytotoxicity at 10 μM (<70% control) [5] | Stimulation of human microglial phagocytosis at 10 μM (>150% control) [2] | Stimulation of mouse microglial phagocytosis at 10 μM (>150% control) [1]
144 (≈ 55.1 µg/mL) | O=C(Nc1c[nH]nc1-c1nc2ccc(CN3CCOCC3)cc2[nH]1)NC1CC1 [AT9283] | Y (Published data supports that the compound is active in a cellular system when dosed at 10 μM (Y/N)) | Y (The compound was found to inhibit phagocytosis (response threshold: <70% control) when murine immortalized microglial cells were dosed at 10 μM (Y: yes)) | Y (The compound was found to inhibit phagocytosis (response threshold: <70% control) when human immortalized microglial cells were dosed at 10 μM (Y: yes)) | – | Y (The compound was found to be cytotoxic (cell count threshold: <70% control) when murine immortalized microglial cells were dosed at 10 μM (Y: yes)) | – | – | –
< 1.1 | CCOC(=O)CS(=O)(=O)c1ccc([C@@H](CO)NC(=O)c2cc3c(Cl)c(Cl)c(C)cc3n2C)cc1 [BI-4916] | Y (Published data supports that the compound is active in a cellular system when dosed at 10 μM (Y/N)) | – | Y (The compound was found to inhibit phagocytosis (response threshold: <70% control) when human immortalized microglial cells were dosed at 10 μM (Y: yes)) | – | Y (The compound was found to be cytotoxic (cell count threshold: <70% control) when murine immortalized microglial cells were dosed at 10 μM (Y: yes)) | – | – | Y (The compound was found to stimulate phagocytosis (response threshold: >150% control) when murine immortalized microglial cells were dosed at 10 μM (Y: yes))
2.8 (≈ 0.942 µg/mL) | CCOC(=O)c1sc(NC(=O)c2ccco2)c(SC#N)c1C [CBR-5884] | N (tested/active at 15 μM) | – | Y (The compound was found to inhibit phagocytosis (response threshold: <70% control) when human immortalized microglial cells were dosed at 10 μM (Y: yes)) | – | Y (The compound was found to be cytotoxic (cell count threshold: <70% control) when murine immortalized microglial cells were dosed at 10 μM (Y: yes)) | – | – | Y (The compound was found to stimulate phagocytosis (response threshold: >150% control) when murine immortalized microglial cells were dosed at 10 μM (Y: yes))

Second part, the compound before the results:

Structure (SMILES) | solubility kinetic [3] [µM] | Reported as cell active (<10 μM) (cellular system) | Inhibition of mouse microglial phagocytosis at 10 μM (<70% control) [1] | Inhibition of human microglial phagocytosis at 10 μM (<70% control) [2] | Kinetic solubility ([3]; aqueous buffer pH 7.4) [µM] | Mouse microglial cytotoxicity at 10 μM (<70% control) [4] | Human microglial cytotoxicity at 10 μM (<70% control) [5] | Stimulation of human microglial phagocytosis at 10 μM (>150% control) [2] | Stimulation of mouse microglial phagocytosis at 10 μM (>150% control) [1]
COS(=O)(=O)[O-].C[n+]1c2ccccc2nc2ccccc21 [Phenazine methosulfate] | – | Y (Published data supports that the compound is active in a cellular system when dosed at 10 μM (Y/N)) | Y (The compound was found to inhibit phagocytosis (response threshold: <70% control) when murine immortalized microglial cells were dosed at 10 μM (Y: yes)) | Y (The compound was found to inhibit phagocytosis (response threshold: <70% control) when human immortalized microglial cells were dosed at 10 μM (Y: yes)) | 101.8 | Y (The compound was found to be cytotoxic (cell count threshold: <70% control) when murine immortalized microglial cells were dosed at 10 μM (Y: yes)) | Y (The compound was found to be cytotoxic (cell count threshold: <70% control) when human immortalized microglial cells were dosed at 10 μM (Y: yes)) | – | –
COc1cc(Nc2ncc(F)c(Nc3ccc4c(n3)N(COP(=O)(O)O)C(=O)C(C)(C)O4)n2)cc(OC)c1OC [Fostamatinib] | 161 (≈ 93.5 µg/mL) | Y (Published data supports that the compound is active in a cellular system when dosed at 10 μM (Y/N)) | Y (The compound was found to inhibit phagocytosis (response threshold: <70% control) when murine immortalized microglial cells were dosed at 10 μM (Y: yes)) | – | – | Y (The compound was found to be cytotoxic (cell count threshold: <70% control) when murine immortalized microglial cells were dosed at 10 μM (Y: yes)) | – | Y (The compound was found to stimulate phagocytosis (response threshold: >150% control) when human immortalized microglial cells were dosed at 10 μM (Y: yes)) | –
COC(=O)C1=C(C)NC2=C(C(=O)c3ccccc32)C1c1ccccc1OCc1ccccc1F (stereo not drawn) [5408-1697] | < 2.1 | Y (Published data supports that the compound is active in a cellular system when dosed at 10 μM (Y/N)) | – | Y (The compound was found to inhibit phagocytosis (response threshold: <70% control) when human immortalized microglial cells were dosed at 10 μM (Y: yes)) | – | – | – | – | Y (The compound was found to stimulate phagocytosis (response threshold: >150% control) when murine immortalized microglial cells were dosed at 10 μM (Y: yes))
COc1cc(/C=C/c2ccc(NC(=O)/C=C/c3cc(OC)c(OC)c(OC)c3)cc2)cc(OC)c1 [STAT3-IN-3] | 4.9 (≈ 2.33 µg/mL) | Y (Published data supports that the compound is active in a cellular system when dosed at 10 μM (Y/N)) | Y (The compound was found to inhibit phagocytosis (response threshold: <70% control) when murine immortalized microglial cells were dosed at 10 μM (Y: yes)) | Y (The compound was found to inhibit phagocytosis (response threshold: <70% control) when human immortalized microglial cells were dosed at 10 μM (Y: yes)) | – | Y (The compound was found to be cytotoxic (cell count threshold: <70% control) when murine immortalized microglial cells were dosed at 10 μM (Y: yes)) | – | – | –
N[C@@H](CC(=O)Nc1ccc(Oc2cc(F)c(F)cc2Br)cc1)C(=O)O [WAY 213613] | 148 (≈ 61.5 µg/mL) | Y (Published data supports that the compound is active in a cellular system when dosed at 10 μM (Y/N)) | – | – | – | Y (The compound was found to be cytotoxic (cell count threshold: <70% control) when murine immortalized microglial cells were dosed at 10 μM (Y: yes)) | – | – | Y (The compound was found to stimulate phagocytosis (response threshold: >150% control) when murine immortalized microglial cells were dosed at 10 μM (Y: yes))
CC(C)CCN1c2nc(Nc3cc(F)c(O)c(F)c3)ncc2N(C)C(=O)C1C (stereo not drawn) [BI-D1870] | 0.8 (≈ 0.313 µg/mL) | Y (Published data supports that the compound is active in a cellular system when dosed at 10 μM (Y/N)) | – | – | – | Y (The compound was found to be cytotoxic (cell count threshold: <70% control) when murine immortalized microglial cells were dosed at 10 μM (Y: yes)) | Y (The compound was found to be cytotoxic (cell count threshold: <70% control) when human immortalized microglial cells were dosed at 10 μM (Y: yes)) | Y (The compound was found to stimulate phagocytosis (response threshold: >150% control) when human immortalized microglial cells were dosed at 10 μM (Y: yes)) | –
CCCCCCOc1cc2c(cc1N(C)c1ncc(C(=O)O)cn1)C(C)(C)CCC2(C)C [PA 452] | 13.9 (≈ 6.11 µg/mL) | Y (Published data supports that the compound is active in a cellular system when dosed at 10 μM (Y/N)) | – | Y (The compound was found to inhibit phagocytosis (response threshold: <70% control) when human immortalized microglial cells were dosed at 10 μM (Y: yes)) | – | – | – | – | Y (The compound was found to stimulate phagocytosis (response threshold: >150% control) when murine immortalized microglial cells were dosed at 10 μM (Y: yes))
